# Assay results as given in US20250082648A1, “COMPOSITIONS AND METHODS FOR ENHANCING KRAS INHIBITOR OR SHP2 INHIBITOR EFFICACY” (New York University, priority 2023, published 2025).
# System: H2122 cells
# Assay: CRISPR/Cas9 synthetic lethal screen with TNO155 alone
# Type: cell-based, human
# Conditions: for neg|lfc: H2122 cells; for neg|score / pos|lfc: H2122
structure (smiles),measurement,setting,value
C[C@@H]1OCC2(CCN(c3cnc(Sc4ccnc(N)c4Cl)c(N)n3)CC2)[C@@H]1N [TNO155],neg|lfc,AATF knockout,−0.9199
same,neg|lfc,ABT1 knockout,−1.0094
same,neg|lfc,ADAT3 knockout,−1.2793
same,neg|score,ADSL knockout,0.0007395
same,neg|lfc,ADSS knockout,−1.8117
same,neg|score,ANAPC2 knockout,0.0008681
same,neg|lfc,ARIH1 knockout,−1.1405
same,neg|score,ASF1A knockout,0.0009774
same,neg|score,ASH2L knockout,0.000721
same,neg|lfc,ATP5B knockout,−1.2287
same,neg|lfc,ATP6V0B knockout,−1.1768
same,neg|score,ATP6V1D knockout,0.0008813
same,neg|score,ATP6V1E1 knockout,0.0009389
same,neg|lfc,ATRX knockout,−1.7393
same,neg|lfc,AURKA knockout,−1.3711
same,neg|lfc,BCAS2 knockout,−0.7436
same,neg|score,BCCIP knockout,0.0009424
same,neg|score,C7orf26 knockout,0.0008313
same,neg|score,C12orf45 knockout,0.0008272
same,neg|score,C16orf59 knockout,0.0007587
same,neg|score,C16orf80 knockout,0.000879
same,neg|score,C17orf70 knockout,0.0008636
same,neg|lfc,CCDC115 knockout,−1.2834
same,neg|score,CCDC174 knockout,0.0007499
same,neg|lfc,CEBPZ knockout,−1.2677
same,neg|score,CENPL knockout,0.000924
same,neg|lfc,CHMP6 knockout,−1.2891
same,neg|score,CLP1 knockout,0.000693
same,neg|lfc,CNOT7 knockout,−0.9274
same,neg|score,COPS4 knockout,0.0009634
same,neg|lfc,COPS5 knockout,−1.8379
same,neg|lfc,COPS8 knockout,−0.9744
same,neg|score,COX10 knockout,0.0009358
same,neg|lfc,COX11 knockout,−0.6679
same,neg|lfc,CSNK2B knockout,−1.5191
same,neg|score,CTNNBL1 knockout,0.0007324
same,neg|score,DCTN1 knockout,0.0008908
same,neg|lfc,DCTN5 knockout,−1.6239
same,neg|lfc,DCTN6 knockout,−1.5775
same,neg|lfc,DDOST knockout,−0.981
same,neg|lfc,DDX52 knockout,−1.1513
same,neg|score,DDX54 knockout,0.0009466
same,neg|score,DGCR8 knockout,0.0008832
same,neg|lfc,DPH5 knockout,−1.0575
same,neg|lfc,DPY30 knockout,−0.7867
same,neg|score,DR1 knockout,0.0008727
same,neg|lfc,DUT knockout,−0.9153
same,neg|lfc,DYNC1I2 knockout,−2.041
same,neg|score,EIF2B1 knockout,0.0008906
same,neg|lfc,EIF2B5 knockout,−1.2117
same,neg|score,EXOC5 knockout,0.0008724
same,neg|lfc,EXOSC8 knockout,−1.0794
same,neg|lfc,FASTKD5 knockout,−0.9103
same,neg|score,FBL knockout,0.0009079
same,neg|score,FBXL5 knockout,0.0009454
same,neg|score,FDX1L knockout,0.0007487
same,neg|lfc,FOXRED1 knockout,−0.9267
same,neg|lfc,FSCN1 knockout,−0.9432
same,neg|lfc,FTSJ3 knockout,−1.5605
same,neg|score,FXN knockout,0.000775
same,neg|lfc,FZD9 knockout,−1.077
same,neg|score,GARS knockout,0.0008542
same,neg|lfc,GEMIN4 knockout,−1.3849
same,neg|score,GINS1 knockout,0.0009186
same,neg|lfc,GSG2 knockout,−1.139
same,neg|lfc,GTF2F2 knockout,−0.9729
same,neg|lfc,GTF3C1 knockout,−1.0865
same,neg|score,GTPBP4 knockout,0.0008361
same,neg|lfc,HEATR2 knockout,−0.6955
same,neg|lfc,HGS knockout,−0.9397
same,neg|lfc,HNF1B knockout,−0.822
same,neg|lfc,HSPA8 knockout,−2.0457
same,neg|score,HSPA14 knockout,0.0009105
same,neg|lfc,IDI1 knockout,−0.7039
same,neg|score,ILF3 knockout,0.0008338
same,neg|lfc,IMP4 knockout,−1.8118
same,neg|score,IPO13 knockout,0.0008689
same,neg|score,IQGAP3 knockout,0.0008176
same,neg|score,JMJD6 knockout,0.0007183
same,neg|lfc,KANSL3 knockout,−1.734
same,neg|score,KBTBD2 knockout,0.0008277
same,neg|score,KDM2A knockout,0.0008953
same,neg|lfc,KIF18A knockout,−1.181
same,neg|score,KRAS knockout,0.0008327
same,neg|lfc,KRR1 knockout,−1.4982
same,neg|score,LSM3 knockout,0.0008487
same,neg|score,LSM5 knockout,0.0007041
same,neg|lfc,LSM12 knockout,−0.7213
same,neg|score,MBTPS1 knockout,0.0007681
same,neg|score,MCAT knockout,0.0009141
same,neg|score,MCM4 knockout,0.000877
same,neg|lfc,MED11 knockout,−1.4228
same,neg|score,MOGAT3 knockout,0.000754
same,neg|score,MRPL11 knockout,0.0007518
same,neg|lfc,MRPL38 knockout,−1.0939
same,neg|lfc,MRPL50 knockout,−1.0478
same,neg|score,MRPS2 knockout,0.0007231
same,neg|score,MRRF knockout,0.0008379
same,neg|score,MTERFD2 knockout,0.0008506
same,neg|score,MTHFD1 knockout,0.0007217
same,neg|score,MYBBP1A knockout,0.0009866
same,neg|lfc,MYBL2 knockout,−0.6253
same,neg|score,NAA10 knockout,0.0008935
same,neg|score,NASP knockout,0.0009277
same,neg|score,NCAPD2 knockout,0.0009387
same,neg|score,NDUFB9 knockout,0.0007395
same,neg|score,NDUFB10 knockout,0.0009074
same,neg|score,NDUFS1 knockout,0.0007194
same,neg|lfc,NDUFS5 knockout,−0.8577
same,neg|lfc,NEDD8 knockout,−2.4196
same,neg|lfc,NIP7 knockout,−0.8825
same,neg|lfc,NLE1 knockout,−1.8629
same,neg|lfc,NME6 knockout,−1.1709
same,neg|lfc,NOL6 knockout,−1.0733
same,neg|score,NOL8 knockout,0.000711
same,neg|lfc,NPLOC4 knockout,−1.2039
same,neg|score,NRF1 knockout,0.0008548
same,neg|lfc,NSMCE2 knockout,−1.577
same,neg|lfc,NUBP1 knockout,−1.2742
same,neg|lfc,OGT knockout,−1.3076
same,neg|score,OR3A2 knockout,0.0009552
same,neg|lfc,PDHA1 knockout,−0.7499
same,neg|lfc,PGGT1B knockout,−0.821
same,neg|lfc,PI4KA knockout,−1.1904
same,neg|score,PNN knockout,0.0007486
same,neg|score,POLD2 knockout,0.0007896
same,neg|score,POLR3A knockout,0.0008536
same,neg|score,PPIL4 knockout,0.000952
same,neg|lfc,PRKRIR knockout,−1.3008
same,neg|score,PRPF19 knockout,0.0007312
same,neg|score,PRPF38B knockout,0.0009555
same,neg|lfc,PSMA6 knockout,−1.9056
same,neg|score,PSMB4 knockout,0.000768
same,neg|lfc,QARS knockout,−1.1752
same,neg|score,RABGGTA knockout,0.0007119
same,neg|lfc,RABIF knockout,−1.3292
same,neg|lfc,RANBP1 knockout,−0.7938
same,neg|lfc,RBM10 knockout,−1.4299
same,neg|lfc,RBM48 knockout,−1.4768
same,neg|score,RBX1 knockout,0.0008383
same,neg|score,RFC2 knockout,0.0008264
same,neg|score,RNASEH1 knockout,0.000903
same,neg|lfc,RNF20 knockout,−0.9142
same,neg|score,RNF168 knockout,0.0008246
same,neg|score,RNPS1 knockout,0.0009345
same,neg|score,RPF2 knockout,0.0009481
same,neg|lfc,RPL7 knockout,−1.3947
same,neg|lfc,RPL18A knockout,−1.5316
same,neg|lfc,RPL35 knockout,−0.8092
same,neg|lfc,RPP30 knockout,−1.2535
same,neg|score,RPS2 knockout,0.0008275
same,neg|lfc,RPS8 knockout,−2.8705
same,neg|lfc,RRM1 knockout,−1.5038
same,neg|score,SASS6 knockout,0.0008932
same,neg|lfc,SKA2 knockout,−1.5851
same,neg|lfc,SLC39A14 knockout,−0.9135
same,neg|score,SMARCB1 knockout,0.0008764
same,neg|score,SOD1 knockout,0.0007147
same,neg|lfc,SRPRB knockout,−0.9129
same,neg|score,SUPT4H1 knockout,0.0007007
same,neg|lfc,SUZ12 knockout,−0.9357
same,neg|lfc,TARDBP knockout,−1.4541
same,neg|lfc,TBCA knockout,−1.4702
same,neg|lfc,TBP knockout,−1.6473
same,neg|lfc,TFB1M knockout,−0.9751
same,neg|score,TFDP1 knockout,0.0007958
same,neg|score,TIMM13 knockout,0.0007917
same,neg|score,TMEM130 knockout,0.0009518
same,neg|score,TNPO3 knockout,0.0009376
same,neg|score,TRIT1 knockout,0.0007446
same,neg|lfc,TSR1 knockout,−1.335
same,neg|score,TTC27 knockout,0.0008097
same,neg|score,TTI1 knockout,0.0008319
same,neg|score,TUBE1 knockout,0.0008874
same,neg|score,TUT1 knockout,0.0008619
same,neg|lfc,TXNL4A knockout,−1.8929
same,neg|score,TYMS knockout,0.0007567
same,neg|lfc,UBC knockout,−1.0724
same,neg|score,UBE2I knockout,0.0008281
same,neg|lfc,UBR4 knockout,−1.0947
same,neg|lfc,UBR5 knockout,−1.3884
same,neg|score,UBTF knockout,0.0007853
same,neg|lfc,UQCRC2 knockout,−1.0409
same,neg|lfc,UTP6 knockout,−2.6455
same,neg|score,UTP20 knockout,0.0007152
same,neg|score,VMA21 knockout,0.000773
same,neg|lfc,VPS18 knockout,−1.3116
same,neg|lfc,VPS53 knockout,−0.6999
same,neg|lfc,VPS72 knockout,−0.5497
same,neg|score,WDHD1 knockout,0.0009781
same,neg|score,WDR3 knockout,0.0009589
same,neg|score,WDR18 knockout,0.0007708
same,neg|lfc,WNK1 knockout,−1.0645
same,neg|score,WRAP53 knockout,0.0007984
same,neg|score,XPR1 knockout,0.000881
same,neg|lfc,XRCC5 knockout,−1.6679
same,neg|score,ZBTB11 knockout,0.0007214
same,neg|lfc,ZCCHC9 knockout,−1.957
same,neg|score,ZNF131 knockout,0.0008989
same,neg|lfc,ZNRD1 knockout,−1.5763
same,pos|lfc,gene ACTB,−1.1591
same,pos|lfc,gene ALG3,−0.5782
same,pos|lfc,gene ANAPC15,−1.2923
same,pos|lfc,gene AP2S1,−1.3206
same,pos|lfc,gene ARID4B,−0.9143
same,pos|lfc,gene BRCA1,−0.6966
same,pos|lfc,gene BUB1B,−0.8094
same,pos|lfc,gene C1D,−1.3624
same,pos|lfc,gene C16orf72,−2.2251
same,pos|lfc,gene CABIN1,−0.7818
same,pos|lfc,gene COPS6,−1.1267
same,pos|lfc,gene CS,−1.0352
same,pos|lfc,gene DARS2,−1.095
same,pos|lfc,gene DCLRE1B,−0.6801
same,pos|lfc,gene DDX49,−2.1703
same,pos|lfc,gene DYNC1H1,−1.3605
same,pos|lfc,gene DYNLRB1,−1.1311
same,pos|lfc,gene EIF2S1,−1.3093
same,pos|lfc,gene EIF2S2,−1.5347
same,pos|lfc,gene EIF5AL1,−0.8423
same,pos|lfc,gene EIF5B,−1.1819
same,pos|lfc,gene FANCA,−0.6873
same,pos|lfc,gene FANCG,−0.7949
same,pos|lfc,gene FNTB,−0.9877
same,pos|lfc,gene GCN1L1,−0.5542
same,pos|lfc,gene GRWD1,−0.9019
same,pos|lfc,gene GTPBP8,−1.0746
same,pos|lfc,gene HNRNPL,−1.1529
same,pos|lfc,gene HNRNPR,−0.5338
same,pos|lfc,gene KIAA1429,−1.1326
same,pos|lfc,gene LIMS1,−0.8407
same,pos|lfc,gene MMGT1,−0.748
same,pos|lfc,gene MRPL54,−0.8393
same,pos|lfc,gene NDUFB2,−0.8331
same,pos|lfc,gene NDUFC1,−0.9001
same,pos|lfc,gene NOP16,−1.0035
same,pos|lfc,gene PDCD7,−0.9939
same,pos|lfc,gene PDE12,−0.8248
same,pos|lfc,gene PEAR1,−0.6471
same,pos|lfc,gene POLD3,−1.3598
same,pos|lfc,gene POLR1C,−0.9691
same,pos|lfc,gene POLR2F,−1.9506
same,pos|lfc,gene PPHLN1,−0.829
same,pos|lfc,gene PPOX,−0.7508
same,pos|lfc,gene PWP2,−1.0599
same,pos|lfc,gene RIMBP2,−0.4894
same,pos|lfc,gene RMND1,−0.9991
same,pos|lfc,gene RPL3,−1.3237
same,pos|lfc,gene RPS19,−2.0213
same,pos|lfc,gene SEZ6,−0.6228
same,pos|lfc,gene SLC2A1,−0.9368
same,pos|lfc,gene SMC3,−1.7209
same,pos|lfc,gene SMC6,−1.1456
same,pos|lfc,gene SMG5,−1.2307
same,pos|lfc,gene SNRNP40,−1.1024
same,pos|lfc,gene TEX10,−1.3169
same,pos|lfc,gene TIFAB,−0.6891
same,pos|lfc,gene TOMM22,−0.8272
same,pos|lfc,gene TRAPPC4,−1.0187
same,pos|lfc,gene TTI2,−0.8554
same,pos|lfc,gene USP10,−0.902
same,pos|lfc,gene WDR12,−1.1622
same,pos|lfc,gene WDR92,−1.2556
same,pos|lfc,gene ZNHIT6,−1.4893
